Test [1] concerns the target T1, Cdn1 (Psychrobacter lutiphocae, UniProt A0ACN4YG66).
T1 construct: codon-optimized gene in pET-28a(+), E. coli BL21(DE3), Ni-NTA and SEC; homodimer (SEC-MALS); N-terminal CARF and C-terminal PD-(D/E)xK nuclease domain
T1 sequence (A0ACN4YG66 1-399): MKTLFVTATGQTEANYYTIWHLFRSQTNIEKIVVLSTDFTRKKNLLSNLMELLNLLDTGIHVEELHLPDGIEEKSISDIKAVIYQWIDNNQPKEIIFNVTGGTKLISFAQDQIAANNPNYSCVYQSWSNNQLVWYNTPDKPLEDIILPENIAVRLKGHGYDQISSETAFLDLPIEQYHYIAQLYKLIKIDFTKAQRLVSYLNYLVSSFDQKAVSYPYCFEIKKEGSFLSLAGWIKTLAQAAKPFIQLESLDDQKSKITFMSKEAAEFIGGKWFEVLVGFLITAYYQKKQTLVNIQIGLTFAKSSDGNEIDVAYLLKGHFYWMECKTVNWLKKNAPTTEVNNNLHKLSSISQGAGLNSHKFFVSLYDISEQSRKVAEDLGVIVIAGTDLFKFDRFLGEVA
The test is described as follows: ITC. The format is binding.

Test [2] has as its target T1, Cdn1. Briefly: FAM-labeled ssRNA (RNA1) cleavage, urea-PAGE. Format: biochemical.
Test [3] concerns the target Cdn1 (CRISPR-associated dual-cOAs-activated ribonuclease 1) (Psychrobacter lutiphocae). The test is described as follows: SEC-MALS; 10 mg/ml Cdn1 in 50 mM NaH2PO4/Na2HPO4, pH 7.4, 300 mM NaCl; TSKgel G3000SWXL, 0.5 ml/min, 8°C; no cyclic oligoadenylate added. For orientation: SEC sorts molecules by how far they enter the pores of the column.
Test [4] has the same target. Briefly: SEC; size-exclusion chromatography during purification (HiLoad 16/600 Superdex 200 prep grade); no cyclic oligoadenylate added.

In turn, `Nc1ncnc2c1ncn2[C@@H]1O[C@@H]2COP(=O)(O)O[C@H]3[C@@H](O)[C@H](n4cnc5c(N)ncnc54)O[C@@H]3COP(=O)(O)O[C@H]3[C@@H](O)[C@H](n4cnc5c(N)ncnc54)O[C@@H]3COP(=O)(O)O[C@H]2[C@H]1O` [cA3] gave an equilibrium dissociation constant (Kd) in test [1] of 23 ± 8.7 nM. Regarding `Nc1ncnc2c1ncn2[C@@H]1O[C@@H]2COP(=O)(O)O[C@H]3[C@@H](O)[C@H](n4cnc5c(N)ncnc54)O[C@@H]3COP(=O)(O)O[C@H]3[C@@H](O)[C@H](n4cnc5c(N)ncnc54)O[C@@H]3COP(=O)(O)O[C@H]3[C@@H](O)[C@H](n4cnc5c(N)ncnc54)O[C@@H]3COP(=O)(O)O[C@H]2[C@H]1O` [cA4], the Kd in test [1] came out at 54.6 ± 25.1 nM. In test [2], this molecule gave an EC50 of 2.17 ± 0.68 nM. For `Nc1ncnc2c1ncn2[C@@H]1O[C@@H]2COP(=O)(O)O[C@H]3[C@@H](O)[C@H](n4cnc5c(N)ncnc54)O[C@@H]3COP(=O)(O)O[C@H]3[C@@H](O)[C@H](n4cnc5c(N)ncnc54)O[C@@H]3COP(=O)(O)O[C@H]3[C@@H](O)[C@H](n4cnc5c(N)ncnc54)O[C@@H]3COP(=O)(O)O[C@H]3[C@@H](O)[C@H](n4cnc5c(N)ncnc54)O[C@@H]3COP(=O)(O)O[C@H]3[C@@H](O)[C@H](n4cnc5c(N)ncnc54)O[C@@H]3COP(=O)(O)O[C@H]2[C@H]1O` [cA6] the same measures were 740 ± 205 nM and 670 ± 98.8 nM. For “Cdn1 (CRISPR-associated dual-cOAs-activated ribonuclease 1) (enzyme)”, the stoichiometry N in test [3] and in test [4] was 2 throughout.

A word on the Kd: it is the concentration at which binding is half-saturated. A higher Kd goes with weaker binding. As usually defined, the EC50 is the concentration that produces a half-maximal response. Higher therefore signals weaker potency. Broadly, the stoichiometry N is the number of molecules, sites or subunits per partner or assembly.

The values are drawn from publication PMC12825302, “Structural plasticity enables broad cAn binding and dual activation of CRISPR-associated ribonuclease Cdn1” (Nucleic Acids Research, 2026).
